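Tested at 5 concentrations; 48 h exposure; 96-well plates; endpoints linearly interpolated, else capped at highest concentration. TGI is the concentration that stops growth completely.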
Key:
Experiment in all cases: NCI tumour cell line growth inhibition, 48 h
[1] = system: ACHN renal
[2] = system: MCF7 breast
[3] = system: U251 CNS
[4] = system: LOX IMVI melanoma
[5] = system: NCI/ADR-RES ovarian
[6] = system: EKVX NSCLC
[7] = system: TK-10 renal
[8] = system: HS 578T breast
[9] = system: UACC-62 melanoma
[10] = system: PC-3 prostate
[11] = system: K-562 leukemia
[12] = system: SK-MEL-28 melanoma
[13] = system: SW-620 colon
[14] = system: HT29 colon
[15] = system: NCI-H460 lung
[16] = system: SNB-19 CNS
[17] = system: SN12C renal
[18] = system: MOLT-4 leukemia
[19] = system: HCC-2998 colon
[20] = system: A498 renal
[21] = system: OVCAR-8 ovarian
[22] = system: SNB-75 CNS
[23] = system: HCT-15 colon
[24] = system: CCRF-CEM leukemia
[25] = system: BT-549 breast
[26] = system: NCI-H23 lung
[27] = system: OVCAR-5 ovarian
[28] = system: RXF 393 renal
[29] = system: SK-MEL-5 melanoma
[30] = system: UO-31 renal
[31] = system: IGROV1 ovarian
[32] = system: SF-268 CNS
[33] = system: SK-OV-3 ovarian
[34] = system: SF-295 CNS
[35] = system: HOP-92 NSCLC
[36] = system: KM12 colon
[37] = system: RPMI-8226 leukemia
[38] = system: CAKI-1 renal
[39] = system: HCT-116 colon
[40] = system: DU-145 prostate
[41] = system: HL-60(TB) leukemia
[42] = system: SR leukemia
[43] = system: A549 NSCLC
[44] = system: M14 melanoma
[45] = system: T-47D breast
[46] = system: COLO 205 colon
[47] = system: OVCAR-4 ovarian
[48] = system: MALME-3M melanoma

Row | SMILES | TGI [3] [µM] | TGI [5] [µM] | TGI [6] [µM] | TGI [7] [µM] | TGI [8] [µM] | TGI [10] [µM] | TGI [11] [µM] | TGI [12] [µM] | TGI [13] [µM] | TGI [16] [µM] | TGI [18] [µM] | TGI [21] [µM] | TGI [22] [µM] | TGI [24] [µM] | TGI [26] [µM] | TGI [27] [µM] | TGI [28] [µM] | TGI [29] [µM] | TGI [30] [µM] | TGI [31] [µM] | further results
1 | Clc1ccc2sc(-n3ccc4ccccc43)nc2c1 | > 100 | > 100 | > 100 | > 100 | > 100 | > 100 | > 100 | > 100 | > 100 | > 100 | > 100 | > 100 | > 100 | > 100 | > 100 | > 100 | 69.3 | > 100 | > 100 | > 100 | TGI [1]: > 100 µM; TGI [2]: > 100 µM; TGI [4]: > 100 µM; TGI [9]: > 100 µM; TGI [14]: > 100 µM; TGI [15]: > 100 µM; TGI [17]: > 100 µM; TGI [19]: > 100 µM; TGI [20]: > 100 µM; TGI [23]: > 100 µM; TGI [25]: > 100 µM; TGI [32]: > 100 µM; TGI [33]: > 100 µM
2 | COc1cc(OC)c(OC)cc1/C=C\c1nccc2ccccc12 | 65.5 | > 100 | 89.7 | 88.9 | 94.3 | 60.2 | > 100 | 74.7 | 83.4 | 61.4 | 95.8 | 78.9 | 50.6 | > 100 | 51.7 | 98.3 | 39 | 29.5 | 64.1 | 87 | TGI [34]: 56.1 µM; TGI [35]: 32.9 µM; TGI [36]: 33.5 µM; TGI [37]: 59.2 µM; TGI [38]: 68.3 µM; TGI [39]: 33.4 µM; TGI [40]: 34.4 µM; TGI [41]: 73.2 µM; TGI [42]: > 100 µM; TGI [43]: > 100 µM; TGI [44]: 31.1 µM; TGI [45]: 80.4 µM; TGI [46]: 38 µM; TGI [47]: > 100 µM; TGI [32]: 58.8 µM; TGI [48]: > 100 µM; TGI [33]: > 100 µM
